How the values were obtained:
C2hAR57 cells = assay: [3H]-thymidine uptake assay, C2hAR57 cells; format: cell-based, mouse; conditions: for effect on [3H]-thymidine uptake: 48 hours exposure
Description: After 48 hours exposure to the test agents, medium containing 0.1 μCi [^3H]-thymidine (82 Ci/mmol, Amersham, Buckinghamshire, UK) per well was added and incubation was continued for two additional hours at 37° C. The assay was terminated by aspirating the culture medium and washing with ice-cold phosphate buffered saline followed by 5% trichloroacetic acid. The cells where then lysed by applying 0.3 N NaOH (75 μl per well) followed by 0.3 N HCl (75 μl per well) to neutralize the NaOH. The radioactivity in 50-μl aliquots was determined by liquid scintillation counting in 96-well plates (Packard Instrument Corporation) using a TopCount™ Scintillation Counter (Packard Instrument Corporation).

androgen receptor = target: T1, androgen receptor (Homo sapiens, UniProt P10275); conditions: read-out: IC50 (known affinities for the androgen receptor); printed beside rank order potency on inhibition of [3H]-thymidine uptake; cited from earlier work
T1 sequence (P10275 1-920): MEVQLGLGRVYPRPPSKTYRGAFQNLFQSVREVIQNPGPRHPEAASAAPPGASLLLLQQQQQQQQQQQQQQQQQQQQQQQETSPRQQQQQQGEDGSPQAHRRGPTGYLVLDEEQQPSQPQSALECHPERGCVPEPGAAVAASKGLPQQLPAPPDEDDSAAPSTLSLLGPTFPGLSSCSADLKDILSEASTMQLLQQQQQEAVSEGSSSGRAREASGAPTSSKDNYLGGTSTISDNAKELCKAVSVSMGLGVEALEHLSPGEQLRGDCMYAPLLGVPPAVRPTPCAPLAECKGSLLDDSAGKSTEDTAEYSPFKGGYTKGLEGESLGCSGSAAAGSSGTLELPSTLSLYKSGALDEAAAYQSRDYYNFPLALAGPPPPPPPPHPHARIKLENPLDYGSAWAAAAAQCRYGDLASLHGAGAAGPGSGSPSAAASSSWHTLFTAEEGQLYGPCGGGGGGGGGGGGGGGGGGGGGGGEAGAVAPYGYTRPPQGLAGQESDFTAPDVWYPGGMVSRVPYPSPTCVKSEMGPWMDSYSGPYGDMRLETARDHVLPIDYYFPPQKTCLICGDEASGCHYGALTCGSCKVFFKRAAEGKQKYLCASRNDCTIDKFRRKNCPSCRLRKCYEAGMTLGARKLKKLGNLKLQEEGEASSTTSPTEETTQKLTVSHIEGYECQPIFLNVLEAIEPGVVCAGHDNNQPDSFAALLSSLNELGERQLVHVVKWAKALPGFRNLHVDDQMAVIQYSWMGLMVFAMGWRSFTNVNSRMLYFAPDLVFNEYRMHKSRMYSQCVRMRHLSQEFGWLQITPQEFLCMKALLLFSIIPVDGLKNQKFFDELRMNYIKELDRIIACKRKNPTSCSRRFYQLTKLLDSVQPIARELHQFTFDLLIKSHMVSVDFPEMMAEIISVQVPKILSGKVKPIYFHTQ

Compound | reversal of the inhibition of [3H]-thymidine uptake by 0.1 nM DHT (C2hAR57 cells; concomitant addition with 0.1 nM DHT) | IC50 (androgen receptor) [nM] | effect on [3H]-thymidine uptake (C2hAR57 cells)
CC(C)(O)C(=O)Nc1ccc([N+](=O)[O-])c(C(F)(F)F)c1 [2-hydroxyflutamide] | completely reversed |  | 
C[C@]12COC(=O)C[C@@H]1CC[C@@H]1[C@@H]2CC[C@@]2(C)[C@H]1CC[C@]2(C)O [oxandrolone] |  | 28.4 | dose-dependent inhibitory effects
C[C@]12Cc3c[nH]nc3C[C@@H]1CC[C@@H]1[C@@H]2CC[C@@]2(C)[C@H]1CC[C@]2(C)O [stanozolol] |  |  | dose-dependent inhibitory effects
C[C@]12CC[C@H]3[C@@H](CCC4=CC(=O)CC[C@@]43C)[C@@H]1CC[C@@H]2O [testosterone] |  |  | dose-dependent inhibitory effects
